Here are results for 62 molecules from US20170280720A1, “ARGININE […] INHIBITORS AND USES THEREOF” (EPIZYME, INC., priority 2014, published 2017).

For the experiment, the target named is T1, Human CARM1 (PRMT4) (Homo sapiens, UniProt Q86X55).
T1 construct: Flag-CARM1-His; made in house; host or cells: HEK 293F cells (BacMam baculovirus, pFastBacMam)
T1 sequence (Q86X55 2-585 isoform Q86X55-1): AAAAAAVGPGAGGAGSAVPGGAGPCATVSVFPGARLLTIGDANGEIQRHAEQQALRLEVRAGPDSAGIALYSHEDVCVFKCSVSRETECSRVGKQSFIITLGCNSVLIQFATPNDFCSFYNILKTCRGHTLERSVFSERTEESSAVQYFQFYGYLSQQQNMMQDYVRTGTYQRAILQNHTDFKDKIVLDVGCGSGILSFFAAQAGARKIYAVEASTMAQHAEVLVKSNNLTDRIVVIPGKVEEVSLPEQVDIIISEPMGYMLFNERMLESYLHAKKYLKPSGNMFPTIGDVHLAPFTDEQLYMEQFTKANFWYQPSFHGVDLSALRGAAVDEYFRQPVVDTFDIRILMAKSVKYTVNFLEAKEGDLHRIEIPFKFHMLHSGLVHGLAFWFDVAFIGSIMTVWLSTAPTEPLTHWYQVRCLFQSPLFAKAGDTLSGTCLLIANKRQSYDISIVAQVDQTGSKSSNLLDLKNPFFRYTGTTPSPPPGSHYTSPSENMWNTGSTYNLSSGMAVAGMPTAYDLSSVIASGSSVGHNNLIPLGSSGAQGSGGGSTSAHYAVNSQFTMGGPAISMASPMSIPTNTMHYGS
Description: CARM1 biochemical assay (3H-SAM Flashplate, peptide substrate). The settings on record: read-out: CARM1_ IC50. The method in brief: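 FLAG/His-tagged human CARM1 (isoform 1, Δ539-561, baculovirus-expressed), 0.25 nM, preincubated 30 min at room temperature with compound (2% DMSO) in 20 mM Bicine pH 7.6, then reacted with 30 nM 3H-SAM and 250 nM biotinylated H3 16-30 peptide (R26 monomethyl). Stopped with 300 uM cold SAM; labelled peptide captured on streptavidin Flashplate; % inhibition versus DMSO and 1 mM SAH controls fitted to a 4- or 3-parameter curve.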
On to `CNCCN(C)Cc1cccc(-c2cc(N3CCC3)c3cnn(C(C)C)c3n2)c1` [Compound 79], for which the IC50 stood at 14.5 nM.

Consider `CC(C)n1ncc2c(C(=O)NCc3ccccc3F)cc(-c3cccc(CN(C)CCN)c3)nc21` [Compound 65], for which the IC50 was 8.39 nM.

Turning to `CNCCN(C)Cc1cccc(-c2cc(C(=O)NCCCCC(=O)NCc3ccn(C)n3)c3cnn(C(C)C)c3n2)c1` [Compound 122], the IC50 came to 13.5 nM.

As to `CNCCN(C)Cc1cccc(-c2nc(NCc3cn4ccsc4n3)c3cnn(C4CC4)c3n2)c1` [Compound 6], the IC50 stood at 23.8 nM.

For the molecule `CNCCN(C)Cc1cccc(-c2nc(N3CCOCC3)c3cnn(C(C)C)c3n2)c1` [Compound 99], the 50% inhibitory concentration (IC50) stood at 11.3 nM.

As to `CC(C)n1ncc2c(NC(=O)N(C)C)cc(-c3cccc(CN(C)CCN)c3)nc21` [Compound 116], the IC50 was found to be 23.4 nM.

For `CNCCN(C)Cc1cccc(-c2cc(C(=O)N3CCCCC3)c3cnn(C(C)C)c3n2)c1` [Compound 56], the half-maximal inhibitory concentration (IC50) turned out to be 219 nM.

For `COc1ccccc1Cn1cnc2ccc(-c3ccc(CNCCN)cc3)cc21` [Compound 80], the IC50 came to 4810 nM.

As to `CCC(O)c1cc(-c2cccc(CN(C)CCNC)c2)nc2c1cnn2C(C)C` (centres unmarked) [Compound 48], the IC50 was 154 nM.

With `CNCCN(C)Cc1cccc(-c2cc(C(=O)NCCC(=O)NCC3CCOCC3)c3cnn(C(C)C)c3n2)c1` [Compound 64], the 50% inhibitory concentration (IC50) turned out to be 24.9 nM.

Take `CNCCN(C)Cc1cccc(-c2cc(NC(=O)NC(C)C)c3cnn(C(C)C)c3n2)c1` [Compound 85]: the IC50 turned out to be 14 nM.

Consider `CNCCN(C)Cc1cccc(-c2cc(C(=O)NCCCC(=O)NCc3ccn(C)n3)c3cnn(C(C)C)c3n2)c1` [Compound 88], for which the IC50 stood at 16.5 nM.

`CNCCN(C)Cc1cccc(-c2cc(C(=O)NCCCC(=O)NCC3CCOCC3)c3cnn(C(C)C)c3n2)c1` [Compound 60]: the IC50 is 17.2 nM.

For `CNCCN(C)Cc1cccc(-c2nc(N(C)C3CCOCC3)c3cnn(C4CC4)c3n2)c1` [Compound 109, N1-(3-(1-cyclopropyl-4-(methyl(tetrahydro-2H-pyran-4-yl)amino)-1H-pyrazolo[3,4-d]pyrimidin-6-yl)benzyl)-N1,N2-dimethylethane-1,2-diamine], the IC50 stood at 5.02 nM.

`CNCCN(C)Cc1cccc(-c2cc(C(=O)NCCC(=O)NCc3ccn(C)n3)c3cnn(C(C)C)c3n2)c1` [Compound 83]: the IC50 is 25.7 nM.

In the case of `CNCCN(C)Cc1cccc(-c2cc(C(=O)NCc3cc(C)nn3C)c3cnn(C(C)C)c3n2)c1` [Compound 120], the IC50 stood at 35.6 nM.

`CNCCN(C)Cc1cccc(-c2cnc3c(c2)c(C2CC2)nn3CC2CCOCC2)c1` [Compound 4]: the IC50 amounted to 1400 nM.

As to `Cc1cccc(-n2cnc3ccc(-c4ccc(CNCCN)cc4)cc32)c1` [Compound 106], the half-maximal inhibitory concentration (IC50) worked out at 14900 nM.

With `CNCCN(C)Cc1cccc(-c2cc(N3CCOCC3)c3cnn(C(C)C)c3n2)c1` [Compound 68], the IC50 stood at 9.84 nM.

For the molecule `CC(C)n1ncc2c(C(=O)NCC3CCOCC3)cc(-c3cccc(CN(C)CCN)c3)nc21` [Compound 108], the concentration for half-maximal inhibition (IC50) worked out at 10.4 nM.

As for `CC(C)n1ncc2c(C(=O)N[C@@H](C)c3ccccc3)cc(-c3cccc(CNCCN)c3)cc21` [Compound 125], the 50% inhibitory concentration (IC50) worked out at 75.8 nM.

Take `CNCCN(C)Cc1cccc(-c2cc(C(=O)NCCCCCC(=O)NCC3CCOCC3)c3cnn(C(C)C)c3n2)c1` [Compound 112]: the IC50 stood at 23.9 nM.

On to `Cc1ccc(Cn2cnc3ccc(-c4ccc(CNCCN)cc4)cc32)cc1` [Compound 97], for which the IC50 worked out at 8190 nM.

For the molecule `COc1cccc(-n2cnc3ccc(-c4ccc(CNCCN)cc4)cc32)c1` [Compound 110], the 50% inhibitory concentration (IC50) was 10600 nM.

On to `CC(C)n1cc2c(Cl)cc(-c3cccc(CN(C)CCN)c3)nc2n1` [Compound 59], for which the half-inhibitory concentration (IC50) worked out at 707 nM.

For the molecule `CNCCN(C)Cc1cccc(-c2ccc3cnn(C(C)C)c3n2)c1` [Compound 73], the 50% inhibitory concentration (IC50) was 381 nM.

For the molecule `CNCCN(C)Cc1cccc(-c2cc(NC3CCOCC3)c3cnn(C(C)C)c3n2)c1` [Compound 76], the IC50 worked out at 13.2 nM.

Take `COc1cccc(CCn2cnc3ccc(-c4ccc(CNCCN)cc4)cc32)c1` [Compound 94]: the IC50 stood at 4270 nM.

Consider `CN(CCN)Cc1cccc(-c2nc(NC3CC3)c3cnn(C4CC4)c3n2)c1` [Compound 96], for which the IC50 was found to be 8.42 nM.

Take `CNCCN(C)Cc1cccc(-c2nc(NCc3cnn(C)c3C)c3cnn(C4CC4)c3n2)c1` [Compound 57]: the IC50 is 18.5 nM.

As to `CC(C)NC(=O)Nc1cc(-c2cccc(CN(C)CCN)c2)nc2c1cnn2C(C)C` [Compound 86], the IC50 stood at 8.11 nM.

For the molecule `CNCCN(C)Cc1cccc(-c2nc(NC3CC3)c3cnn(C4CC4)c3n2)c1` [Compound 114], the half-inhibitory concentration (IC50) was found to be 17.9 nM.

Turning to `Cc1c(CNc2nc(-c3cccc(CN(C)CCN)c3)nc3c2cnn3C2CC2)cnn1C` [Compound 52], the IC50 was found to be 4.04 nM.

Turning to `CN(CCN)Cc1cccc(-c2nc(N(C)C3CCOCC3)c3cnn(C4CC4)c3n2)c1` [Compound 119], the half-inhibitory concentration (IC50) was determined as 4.77 nM.

Regarding `Cc1ccccc1Cn1cnc2ccc(-c3ccc(CNCCN)cc3)cc21` [Compound 82], the IC50 came to 8130 nM.

For the molecule `CNCCN(C)Cc1cccc(-c2cc(NC(=O)N(C)C)c3cnn(C(C)C)c3n2)c1` [Compound 123], the IC50 was determined as 29.6 nM.

In the case of `CNCCN(C)Cc1cccc(-c2nc(NCc3ccncc3)c3cnn(C4CC4)c3n2)c1` [Compound 69], the half-inhibitory concentration (IC50) amounted to 19.5 nM.

For `CN(CCN)Cc1cccc(-c2nc(NCc3cn4ccsc4n3)c3cnn(C4CC4)c3n2)c1` [Compound 5], the IC50 was 3.24 nM.

For `CC(C)n1ncc2c(NS(=O)(=O)N(C)C)cc(-c3cccc(CN(C)CCN)c3)nc21` [Compound 107], the half-inhibitory concentration (IC50) came out at 25.8 nM.

With `CNCCN(C)Cc1cccc(-c2cc(C(=O)NCCCCC(=O)NCC3CCOCC3)c3cnn(C(C)C)c3n2)c1` [Compound 118], the half-maximal inhibitory concentration (IC50) was determined as 18 nM.

For the molecule `CNCCN(C)Cc1cccc(-c2cc(N(C)C)c3cnn(C(C)C)c3n2)c1` [Compound 103], the IC50 amounted to 57.7 nM.

For `NCCNCc1ccc(-c2ccc3ncn(Cc4ccc(C(=O)N5CCCC5)cc4)c3c2)cc1` [Compound 104], the IC50 came to 4120 nM.

With `COc1cccc(Cn2cnc3ccc(-c4ccc(CN(C)CCN)cc4)cc32)c1` [Compound 8], the IC50 stood at 3870 nM.

Turning to `CNCCN(C)Cc1cccc(-c2cc(OC)c3cnn(C(C)C)c3n2)c1` [Compound 124], the concentration for half-maximal inhibition (IC50) was determined as 75.5 nM.

For `CNCCN(C)Cc1cccc(-c2cc(N3CCC(C#N)CC3)c3cnn(C(C)C)c3n2)c1` [Compound 93], the IC50 is 10.6 nM.

As for `NCCNCc1ccc(-c2ccc3ncn(CC4CCCNC4)c3c2)cc1` (centres unmarked) [Compound 81], the half-maximal inhibitory concentration (IC50) amounted to 4270 nM.

For `CNCCN(C)Cc1cccc(-c2cc(N3CCCC(C#N)C3)c3cnn(C(C)C)c3n2)c1` (centres unmarked) [Compound 55], the IC50 was 35.5 nM.

Turning to `CNCCN(C)Cc1cccc(-c2ccc3cnn(C(C)C)c3c2)c1` [Compound 100], the IC50 is 3700 nM.

`CC(C)n1ncc2c(NC3CCOCC3)cc(-c3cccc(CN(C)CCN)c3)nc21` [Compound 101]: the IC50 was 5.11 nM.

Turning to `CC(C)n1ncc2c(C(=O)N(C)[C@@H](C)c3ccccc3)cc(-c3cccc(CN(C)CCN)c3)cc21` [Compound 3], the concentration for half-maximal inhibition (IC50) came to 46 nM.

On to `CNCCN(C)Cc1cccc(-c2cc(C#N)c3cnn(C(C)C)c3n2)c1` [Compound 74], for which the half-maximal inhibitory concentration (IC50) came out at 38.4 nM.

As for `CNCCN(C)Cc1cccc(-c2nc(NCc3ccccn3)c3cnn(C4CC4)c3n2)c1` [Compound 9], the half-maximal inhibitory concentration (IC50) amounted to 7.59 nM.

As for `CNCCN(C)Cc1cccc(-c2ccc3nc[nH]c3c2)c1` [Compound 75], the concentration for half-maximal inhibition (IC50) came to 10000 nM.

In the case of `CNCCN(C)Cc1cccc(-c2cc(C(=O)NCc3ccccn3)c3cnn(C(C)C)c3n2)c1` [Compound 98], the IC50 is 32.4 nM.

In the case of `COC(=O)Nc1cc(-c2cccc(CN(C)CCN)c2)nc2c1cnn2C(C)C` [Compound 71], the IC50 stood at 10.6 nM.

Regarding `CCNc1cc(-c2cccc(CN(C)CCNC)c2)nc2c1cnn2C(C)C` [Compound 72], the IC50 is 109 nM.

As for `NCCNCc1ccc(-c2ccc3ncn(CC4CCNCC4)c3c2)cc1` [Compound 70], the concentration for half-maximal inhibition (IC50) stood at 11700 nM.

For the molecule `CNCCN(C)Cc1cccc(-c2ccc3ncn(C)c3c2)c1` [Compound 92], the IC50 was determined as 6490 nM.

`CNCCN(C)Cc1cccc(-c2cc(NC3COC3)c3cnn(C(C)C)c3n2)c1` [Compound 58]: the IC50 was determined as 22.2 nM.

`CNCCN(C)Cc1cccc(-c2cc(-c3cnn(C)c3)c3cnn(C(C)C)c3n2)c1` [Compound 49, N1-(3-(1-isopropyl-4-(1-methyl-1H-pyrazol-4-yl)-1H-pyrazolo[3,4-b]pyridin-6-yl)benzyl)-N1,N2-dimethylethane-1,2-diamine]: the concentration for half-maximal inhibition (IC50) was found to be 12.4 nM.

With `CNCCN(C)Cc1cccc(-c2nc(NCc3cccnc3)c3cnn(C4CC4)c3n2)c1` [Compound 63], the half-maximal inhibitory concentration (IC50) amounted to 17 nM.

Regarding `CCOC(=O)c1cc(-c2cccc(CN(C)CCNC)c2)nc2c1cnn2C(C)C` [Compound 78], the concentration for half-maximal inhibition (IC50) amounted to 18 nM.

What is called IC50 is the concentration that inhibits the measured activity by half.
